Source: patent publication US20090035815A1, “Synthetic Gene for Enhanced Expression in E. Coli” (priority 2007, published 2009)

Tested on: PC-12 cells
Test: In-vitro bioassay of recombinant Nesiritide: cGMP induction in PC-12 cells
Type: cell-based, Rat
Conditions: 30 mins
Excerpt: In all five batches of Nesiritide of the present invention, the cGMP induction in PC-12 cells the Nesiritide concentration (nM) is directly proportional to the concentration of Nesiritide used in culture. Culture format: 24-well plate; Cells used: PC-12 cells (Rat adrenal pheochromocytoma); no. of cells plated: 1.0×10^6 cells per well; Parameter measured: cGMP from cell lysate; Method used: Competitive Inhibition Assay (Acetylated format); Kit used: Correlate-EIA cGMP kit Assay Design Inc., USA.
Nesiritide is known to elicit its biological activity via a cGMP second messenger system in vitro and in vivo. PC-12 cells were plated in Plain RPMI medium in 24-well plate and equilibrated at 37° C., 5% CO2 incubator for 2 hrs. Prestimulation medium (RPMI+0.1% BSA+0.1 mM IBMX) was added to cells for 10 mins. It was followed by the addition of different concentrations of Nesiritide for 30 mins at 37° C., 5% CO2 incubator. The cells were lysed with 0.1M HCL for 20 mins followed by 5-7 freeze-thaw cycles. The cell lysates were centrifuged in microfuge at 10000 rpm for 10 mins at 4° C. Protein concentration of the supernatant was estimated by Bradford's method. The supernatant from cell lysates was assayed for cGMP concentration (FIG. 13) using a cGMP kit (Assay Design Inc). The cGMP from cell lysates was estimated from cGMP standard curve. ED50 value was calculated.

Row | Substance | cGMP levels (Nesiritide Conc 25 nM) | cGMP levels (Nesiritide Conc 50 nM) | cGMP levels (Nesiritide Conc 75 nM) | cGMP levels (Nesiritide Conc 100 nM) | cGMP levels (Nesiritide Conc 150 nM) | cGMP levels (Nesiritide Conc 200 nM)
1 | USV B. No 5706: batch of recombinant nesiritide of the present invention (Seq. ID NO:2) | 0.114 ± 0.005 pmol/mL | 0.191 ± 0.01 pmol/mL | 0.305 ± 0.05 pmol/mL | 0.478 ± 0.06 pmol/mL | 0.756 ± 0.02 pmol/mL | 1.085 ± 0.06 pmol/mL
2 | USV B. No 5606: batch of recombinant nesiritide of the present invention (Seq. ID NO:2) | 0.119 ± 0.01 pmol/mL | 0.150 ± 0.03 pmol/mL | 0.321 pmol/mL | 0.475 ± 0.01 pmol/mL | 0.787 ± 0.07 pmol/mL | 1.006 ± 0.05 pmol/mL
3 | b-type natriuretic peptide (1-32) [Bachem, reference compound] | 0.121 ± 0.006 pmol/mL | 0.164 ± 0.05 pmol/mL | 0.327 ± 0.05 pmol/mL | 0.502 ± 0.05 pmol/mL | 0.793 ± 0.02 pmol/mL | 1.206 ± 0.08 pmol/mL
4 | USV B. No 5406: batch of recombinant nesiritide of the present invention (Seq. ID NO:2) | 0.133 ± 0.004 pmol/mL | 0.161 ± 0.01 pmol/mL | 0.383 ± 0.02 pmol/mL | 0.444 ± 0.06 pmol/mL | 0.799 ± 0.08 pmol/mL | 1.214 ± 0.06 pmol/mL
